These results are taken from PubChem BioAssay (NCI).

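Exposure lasted 48 hours, with cells grown in 96-well plates and compounds tested at five concentrations. At the GI50, growth is halved. TGI: concentration producing complete growth inhibition.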

Test systems include K-562 leukemia; MCF7 breast; A549 NSCLC; A498 renal; M14 melanoma; DU-145 prostate; SF-268 CNS; KM12 colon; MDA-MB-435; SW-620 colon.
Common to all, as to test: inhibition of tumour cell growth, NCI panel, 48 h

Turning to `CN1CCN(c2nc(NCCCCNc3ccnc4cc(Cl)ccc34)c3ccccc3n2)CC1`, the GI50 is 2.53 µM in the assay with K-562 leukemia; 4.3 µM with MCF7 breast; 5.19 µM with A549 NSCLC; 12.1 µM in the assay with A498 renal; 1.83 µM in the assay with M14 melanoma; 7 µM with DU-145 prostate. Moreover, the GI50 with SF-268 CNS was 10.7 µM; in the assay with KM12 colon, 8.25 µM; with MDA-MB-435, 1.97 µM; in the assay on SW-620 colon it was 4.42 µM. Besides, the TGI with K-562 leukemia came out at 11.8 µM; in the assay with MCF7 breast, 19.1 µM; in the assay with A549 NSCLC it was 20.5 µM; in the assay with A498 renal it was 25 µM; in the assay with M14 melanoma it was 3.47 µM; in the assay with DU-145 prostate, 21.7 µM. Also, the TGI was 33.9 µM with SF-268 CNS, 25.1 µM in the assay on KM12 colon, 4.25 µM in the assay with MDA-MB-435 and 18.2 µM in the assay with SW-620 colon.

`CS(=O)(=O)c1ccc(-c2cnc(N)c(C(=O)Nc3ccccc3)n2)cc1`: the GI50 in the assay with K-562 leukemia was 5.34 µM; in the assay on MCF7 breast it was 10.8 µM; in the assay on A549 NSCLC, above 24.2 µM; in the assay with A498 renal it was 6.59 µM; with M14 melanoma it was 20.7 µM; with DU-145 prostate, 8.35 µM. The GI50 is 25 µM in the assay with SF-268 CNS, above 100 µM in the assay on KM12 colon, above 100 µM in the assay on MDA-MB-435 and above 100 µM in the assay with SW-620 colon. In addition, the TGI in the assay on K-562 leukemia, with MCF7 breast, in the assay on A549 NSCLC, with A498 renal, with M14 melanoma and with DU-145 prostate was above 100 µM in each case. The TGI in the assay on SF-268 CNS, with KM12 colon, in the assay with MDA-MB-435 and in the assay with SW-620 colon was above 100 µM each time.

For the compound `CN(C)c1ccc(-c2cc(-c3ccc(Nc4nc(Nc5ccccc5)nc(Nc5ccc(Cl)cc5)n4)cc3)nc(N)n2)cc1`, the GI50 in the assay with K-562 leukemia was 2.61 µM; in the assay with MCF7 breast, 2.84 µM; in the assay on A549 NSCLC, 5.34 µM; in the assay on A498 renal, 4.63 µM; in the assay on M14 melanoma it was 3.65 µM; in the assay on DU-145 prostate, 8.09 µM. Also, the GI50 with SF-268 CNS was 6.69 µM; in the assay on KM12 colon, 3.06 µM; in the assay on MDA-MB-435, 4.83 µM; in the assay with SW-620 colon it was 6.86 µM. The TGI in the assay on K-562 leukemia was 11.4 µM; in the assay on MCF7 breast it was 15 µM; in the assay with A549 NSCLC, above 100 µM; in the assay with A498 renal, 20.1 µM; in the assay on M14 melanoma, 17.6 µM; in the assay with DU-145 prostate, 21.4 µM. Moreover, the TGI with SF-268 CNS amounted to 56.4 µM; with KM12 colon it was 13 µM; in the assay with MDA-MB-435, 74.9 µM; in the assay on SW-620 colon, 21.8 µM.

On to `O=C(CCCCCCSc1nc(-c2ccccc2)cc(-c2ccccc2)n1)NO`, for which the GI50 in the assay with K-562 leukemia was 1.58 µM; in the assay with MCF7 breast, 1.31 µM; in the assay on A549 NSCLC, 2.45 µM; with A498 renal it was 1.69 µM; with M14 melanoma, 1.58 µM; in the assay on DU-145 prostate it was 2.44 µM. The GI50 in the assay on SF-268 CNS is 2.7 µM; with KM12 colon it was 3.22 µM; in the assay with MDA-MB-435, 1.98 µM; with SW-620 colon it was 1.49 µM. Also, the TGI was 12 µM with K-562 leukemia; 15.9 µM in the assay with MCF7 breast; 10.4 µM in the assay with A549 NSCLC; 4.05 µM in the assay with A498 renal; 5.94 µM in the assay on M14 melanoma; 10.6 µM with DU-145 prostate. Moreover, the TGI was 7.42 µM in the assay on SF-268 CNS, 15.9 µM in the assay with KM12 colon, 11.2 µM in the assay with MDA-MB-435 and 12.8 µM in the assay with SW-620 colon.

Regarding `NC1=C(Br)C(=O)c2ncccc2C1=O`, the TGI in the assay on K-562 leukemia turned out to be 1.01 µM; in the assay with MCF7 breast, 1.99 µM; in the assay on A549 NSCLC it was 2.68 µM; with A498 renal it was 7.99 µM; in the assay on M14 melanoma it was 2.03 µM; in the assay with DU-145 prostate, 2.14 µM. In addition, the TGI stood at 1.92 µM with SF-268 CNS, 2.7 µM with KM12 colon, 0.313 µM with MDA-MB-435 and 1.84 µM in the assay with SW-620 colon. For the same compound, the GI50 with MCF7 breast was 0.367 µM; with DU-145 prostate it was 0.709 µM; in the assay on MDA-MB-435 it was 0.168 µM.

Consider `N=c1c2c(-c3ccccc3)c(-c3ccccc3)n(Cc3ccccc3)c2ncn1CCCO`, for which the GI50 with K-562 leukemia is 0.959 µM; in the assay with MCF7 breast it was 0.472 µM; in the assay with A549 NSCLC, 0.561 µM; with A498 renal, 3.3 µM; in the assay with M14 melanoma it was 2 µM; with DU-145 prostate, 3.14 µM. The GI50 was 0.894 µM in the assay on SF-268 CNS, 1.01 µM with KM12 colon, 1.61 µM in the assay on MDA-MB-435 and 0.377 µM in the assay with SW-620 colon. The TGI in the assay with K-562 leukemia was 7.6 µM; in the assay on MCF7 breast, 2.07 µM; in the assay on A549 NSCLC, 15.5 µM; in the assay on A498 renal, 19.7 µM; with M14 melanoma it was 6.54 µM; with DU-145 prostate, 19.1 µM. For the same compound, the TGI in the assay with SF-268 CNS amounted to 20.8 µM; with KM12 colon it was 14.3 µM; in the assay on MDA-MB-435, 16.8 µM; in the assay with SW-620 colon, 15.5 µM.

Take `Cc1ccc2c(c1C)-c1c(ccc(C)c1C)C(=O)C2=O`: the TGI with K-562 leukemia was 1.1 µM; in the assay with MCF7 breast it was 0.809 µM; in the assay with A549 NSCLC, 10.3 µM; in the assay on A498 renal, 4.35 µM; in the assay with M14 melanoma, 2.12 µM; with DU-145 prostate it was 3.41 µM. Besides, the TGI was determined as 5.38 µM in the assay on SF-268 CNS, 2.21 µM in the assay with KM12 colon, 0.619 µM in the assay with MDA-MB-435 and 3.23 µM in the assay on SW-620 colon.

In the case of `COc1ccc(C(=O)/C=C/c2c(C(F)(F)F)nc3sccn23)cc1OC`, the GI50 with K-562 leukemia was 2.25 µM; in the assay with MCF7 breast, 0.766 µM; with A549 NSCLC, 4.65 µM; in the assay with A498 renal it was 7.58 µM; with M14 melanoma, 2.67 µM; in the assay with DU-145 prostate, 1.64 µM. Further, the GI50 with SF-268 CNS is 3.44 µM; in the assay on KM12 colon, 1.97 µM; in the assay on MDA-MB-435, 1.85 µM; in the assay on SW-620 colon it was 1.49 µM. Moreover, the TGI in the assay with K-562 leukemia was above 100 µM; with MCF7 breast, 34.9 µM; with A549 NSCLC, above 100 µM; with A498 renal, 54.9 µM; with M14 melanoma, above 100 µM; in the assay with DU-145 prostate, 5 µM. The TGI in the assay with SF-268 CNS is above 100 µM; in the assay on KM12 colon it was 11.1 µM; in the assay with MDA-MB-435 it was above 100 µM; in the assay on SW-620 colon it was above 100 µM.

In the case of `c1cc(CCN2CCCCC2)ccn1`, the TGI with K-562 leukemia, in the assay on MCF7 breast, in the assay with A549 NSCLC, in the assay on A498 renal, with M14 melanoma and in the assay on DU-145 prostate was above 100 µM in each case. For the same compound, the TGI in the assay on SF-268 CNS, in the assay with KM12 colon, in the assay on MDA-MB-435 and in the assay with SW-620 colon was above 100 µM in each case.

On to `C=CCNCCCN1C(=O)c2ccc3c4c(ccc(c24)C1=O)C(=O)N(CCCNCC=C)C3=O`, for which the GI50 was 0.296 µM with K-562 leukemia; 0.157 µM with MCF7 breast; 0.226 µM in the assay with A549 NSCLC; 0.394 µM in the assay on A498 renal; 0.47 µM in the assay with M14 melanoma; 0.311 µM in the assay on DU-145 prostate. For the same compound, the GI50 was 0.557 µM with SF-268 CNS, 0.417 µM in the assay on KM12 colon, 0.199 µM in the assay with MDA-MB-435 and 0.265 µM in the assay with SW-620 colon. The TGI in the assay on K-562 leukemia amounted to 1.48 µM; in the assay on MCF7 breast, 0.336 µM; with A549 NSCLC, 0.605 µM; with A498 renal it was 1.76 µM; with M14 melanoma it was 1.66 µM; in the assay with DU-145 prostate, 0.857 µM. Also, the TGI in the assay on SF-268 CNS was determined as 4.41 µM; in the assay with KM12 colon, 1.62 µM; with MDA-MB-435, 0.434 µM; in the assay on SW-620 colon, 1.51 µM.

For the compound `COc1ccc(-c2nnc(SCC(=O)Nc3ccc(/C(C)=N\O)cc3)n2-c2ccccc2)cc1OC`, the GI50 in the assay on K-562 leukemia is above 100 µM; in the assay with MCF7 breast it was above 100 µM; with A549 NSCLC, 9.73 µM; with A498 renal it was 2.72 µM; with M14 melanoma, 97.4 µM; with DU-145 prostate, 24.9 µM. The GI50 is 3.07 µM in the assay with SF-268 CNS, above 100 µM with KM12 colon, above 100 µM in the assay on MDA-MB-435 and above 100 µM in the assay with SW-620 colon. In addition, the TGI in the assay with K-562 leukemia is above 100 µM; with MCF7 breast, above 100 µM; in the assay with A549 NSCLC it was above 100 µM; in the assay on A498 renal, 46.1 µM; with M14 melanoma, above 100 µM; in the assay on DU-145 prostate it was above 100 µM. In addition, the TGI in the assay with SF-268 CNS is 20.3 µM; in the assay on KM12 colon, above 100 µM; with MDA-MB-435, above 100 µM; with SW-620 colon it was above 100 µM.

For the compound `CN(CC(=O)O)c1ccc(/C=C/c2ccnc3ccccc23)cc1`, the TGI was above 100 µM in the assay on K-562 leukemia; 35.2 µM in the assay with MCF7 breast; 61.4 µM in the assay with A549 NSCLC; 47.1 µM in the assay on A498 renal; 67.7 µM in the assay with M14 melanoma; above 100 µM in the assay on DU-145 prostate. Also, the TGI was 61.1 µM in the assay with SF-268 CNS, 41.2 µM in the assay with KM12 colon, 51.1 µM with MDA-MB-435 and above 100 µM in the assay on SW-620 colon.
